Data reported in patent US20070275925A1, “ASTHMA DIAGNOSIS AND THERAPY” (REGENTS OF THE UNIVERSITY OF CALIFORNIA, priority 2006, published 2007).
Entries after “also recorded” stand apart in the source; their conditions may differ.

Assays:
Assay type in all cases: in vivo, human
[1] = test system: serpinB2 protein; assay: ELISA for serpinB2 protein levels in bronchoalveolar lavage; conditions: Post-fluticasone (follow-up bronchoscopy, 1 week)
Excerpt: Periostin and serpin B2 have not previously been associated with asthma, and we examined their expression at the protein level. […] However, in asthmatics, serpinB2 levels increased in all subjects at the second bronchoscopy (Table 4s, supplementary appendix). The increase in serpinB2 at the second bronchoscopy likely reflects a pro-coagulation response to the minor bleeding that accompanied bronchial biopsy during the first bronchosocopy. ELISA for serpinB2 protein levels in bronchoalveolar lavage fluid was performed using a commercially available kit (Imubind PAI-2 ELISA, American Diagnostica Inc, Stamford Conn.) according to the manufacturer's directions.

[2] = Lung function (FEV1) in the clinical trial; conditions: by one week, sustained at 4 weeks and 8 weeks; inhaled fluticasone 500 μg twice daily
Protocol: In three cross sectional studies and a clinical trial, epithelial brushings were collected by bronchoscopy from 42 subjects with asthma, 16 current smokers without asthma, and 28 healthy controls. Cross-sectional studies comprised 2 visits, the first for characterization and the second for bronchoscopy. The clinical trial was a 10 week, randomized, double-blind, placebo-controlled trial specifically designed to determine the effects of inhaled fluticasone (500 μg twice daily) on airway gene expression and to relate gene expression changes to improvements in lung function (FIG. 1). Bronchoscopy was performed at baseline and repeated 1 week after starting study drug. Thirty-five subjects had adequate baseline bronchoscopy and 32 had RNA available from epithelial brushings at both bronchoscopies. Lung function was measured at intervals over the 8-week treatment period. […] Spirometry was measured at baseline, before both bronchoscopies, at 4 and 8 weeks after starting study medication, and after the one week run-out according to American Thoracic Society criteria using a dry rolling-seal spirometer (Model VRS2000, PDS Instrumentation, S&M Instrument Co., Doylestown, Pa.). Methacholine responsiveness was measured at baseline and at 4 and 8 weeks after starting study medication using a five-breath dosimeter method (modified from Chai et al).^5

[3] = Methacholine responsiveness (PC20) in the clinical trial; conditions: 4 and 8 weeks
Protocol: Protocol: This was a 6 visit, 10 week, randomized, double-blind, placebo-controlled trial specifically designed to determine the effects of inhaled fluticasone on airway gene expression and to relate those gene expression changes to improvements in lung function. After a one-week run-in/characterization period, subjects were randomized to receive 2 puffs BID of fluticasone propionate (250 μg/puff) or matching placebo for 8 weeks, followed by a one week run-out. Subjects were randomized in blocks designed to yield a greater number of subjects randomized to fluticasone as compared to placebo in order to maximize our ability to relate gene expression to lung function improvements within the intervention group. […] Spirometry was measured at baseline, before both bronchoscopies, at 4 and 8 weeks after starting study medication, and after the one week run-out according to American Thoracic Society criteria using a dry rolling-seal spirometer (Model VRS2000, PDS Instrumentation, S&M Instrument Co., Doylestown, Pa.). Methacholine responsiveness was measured at baseline and at 4 and 8 weeks after starting study medication using a five-breath dosimeter method (modified from Chai et al).^5

[4] = test system: Periostin; assay: Periostin immunohistochemistry in bronchial biopsies with design-based stereology; conditions: one week of treatment with fluticasone
Excerpt: Periostin protein expression was confirmed by immunohistochemistry in bronchial biopsies from a subset of asthmatic and healthy control subjects. Periostin immunolocalized to the subepithelium in all subjects, and quantification confirmed increased expression in asthma (FIG. 3). The degree of immunostaining in asthmatics was not decreased by one week of treatment with fluticasone (FIG. 6, supplementary appendix). Paraffin-embedded sections were deparaffinized and re-hydrated to water. Next, all sections were incubated in 3% hydrogen peroxide/absolute methanol for 10 minutes to block endogenous peroxidase activity. […] Biopsies were formalin-fixed and paraffin-embedded and then analyzed using methods of tissue immunohistochemistry (described above) and design-based stereology.^6 First, the volume of immunohistochemical staining, the volume of submucosal tissue surveyed, and the surface area of the epithelial basal lamina surveyed were determined by point and intersection counting using an integrated microscope (Olympus; Albertslund, Denmark), video camera (JVC Digital Color, JVC A/S; Tatstrup, Denmark), automated microscope stage, and computer (Dell Optiplex GS270 PC running Computer-Assisted Stereology Toolbox [C.A.S.T.] […] Points overlying submucosal tissue that is immunostained and unstained were counted separately along with intersections of test lines with basal lamina. […]

CCC(=O)O[C@]1(C(=O)SCF)[C@H](C)C[C@H]2[C@@H]3C[C@H](F)C4=CC(=O)C=C[C@]4(C)[C@@]3(F)[C@@H](O)C[C@@]21C [fluticasone, fluticasone propionate]
SerpinB2 protein levels in bronchoalveolar lavage, Mean [1]: 0.91 ng/mL
Improvement in FEV1 versus placebo [2]: greater improvements in FEV1 than placebo
PC20 methacholine improvements, fluticasone versus placebo [3]: not statistically different; also recorded: no statistically significant differences
Degree of periostin immunostaining in bronchial biopsies of asthmatics [4]: not decreased
